Results published in patent US6448282B1, “1H-4(5)-substituted imidazole derivatives” (Gliatech, Inc., priority 1995, dated 2002).

Assays:
[1] = system: electrically-induced convulsions; conditions: cited from earlier work
[2] = system: histamine synthesis and release; conditions: in vivo studies; cited from earlier work
cat = conditions: cited from earlier work
rats = conditions: cited from earlier work
Histamine H3 receptor = molecular target: T1, Histamine H3 receptor (Rattus norvegicus, UniProt Q9QYN8); assay: In vitro histamine H3 receptor binding analysis, [3H]-Nα-methylhistamine, rat cortical membranes; conditions: Ki=IC50/(1+([Ligand]/[Kd])
T1 construct: from tissue; host or cells: rat cerebral cortex membranes
Experimental: Briefly, animals were sacrificed by decapitation and the cerebral cortex was rapidly removed. Rat cortices were mechanically homogenized with an Omni 1000 motor driven homogenizer in 10 volumes (wt/vol) of Krebs-Ringers Hepes buffer (pH 7.4) containing the following protease inhibitors; EDTA (10 mM), PMSF (0.1 mM), chymostatin (0.2 mg/50 ml) and leupeptin (0.2 mg/50 ml). The homogenate was centrifuged in a Sorvall at ˜40,000×g for 30 min. The pellet was resuspended by mechanical homogenization in 25 ml water and lysed on ice for 30 min. The homogenate was recentrifuged and the membrane lysis was repeated. The membranes were recentrifuged and the final pellet was resuspended in 14 volumes of water to give approximately 200 μg protein/100 μl final concentration. The suspension was stored at −80° C. prior to use. Protein concentrations were determined by Coomassie Plus Protein Assay (Pierce, Rockford, Ill.).
Nonspecific binding (NSB) was accounted for by the inclusion of thioperamide (10 μM). The samples were incubated for 40 min at 25° C. Samples were filtered through glass fiber strips, pre-washed with 0.3% polyethyleneimine, using a Brandell cell harvester. […] Filters were transferred to polyethylene minivials and counted in 3.5 ml of scintillation fluid (Ecolume, ICN Biomedicals, Inc.). […] Saturation and competition experiments were analyzed with the ReceptorFit saturation and competition curve fitting programs (Lundon Software, Inc., Cleveland, Ohio).

T1 sequence (Q9QYN8 whole entry): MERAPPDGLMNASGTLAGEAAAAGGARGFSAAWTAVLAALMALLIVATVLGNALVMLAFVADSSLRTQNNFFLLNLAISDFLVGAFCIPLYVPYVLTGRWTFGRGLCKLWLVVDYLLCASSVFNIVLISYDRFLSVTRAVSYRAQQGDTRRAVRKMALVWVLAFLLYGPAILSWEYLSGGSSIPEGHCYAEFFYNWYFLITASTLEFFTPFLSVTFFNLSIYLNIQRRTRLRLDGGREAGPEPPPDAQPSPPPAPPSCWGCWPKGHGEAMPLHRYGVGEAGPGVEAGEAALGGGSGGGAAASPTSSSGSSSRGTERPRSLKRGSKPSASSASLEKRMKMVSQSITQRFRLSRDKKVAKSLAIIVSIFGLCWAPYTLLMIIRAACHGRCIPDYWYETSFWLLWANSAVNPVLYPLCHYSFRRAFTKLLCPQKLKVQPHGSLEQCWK

Row | SMILES | Ki (Histamine H3 receptor) | other results
1 | S=C(NC1CCCCC1)N1CCC(c2cnc[nH]2)CC1 [thioperamide] |  | durations of every convulsive phase ([1]; after electrically-induced convulsions): significantly and dose-dependently decrease; electroconvulsive threshold ([1]; in vivo): increase the electroconvulsive threshold; synthesis and release of histamine [2]: increase in synthesis and release of histamine; wakefulness (cat): enhanced wakefulness in a dose-dependent fashion; wakefulness, slow wave and REM sleep (rats): increase wakefulness and decrease slow wave and REM sleep
2 | CC(C)CCC#CCCc1c[nH]cn1 [Example 29, 4-(7-Methyloct-3-ynyl)imidazole] | 3.7 ± 1.1 nM | 
3 | O=C(NCCc1c[nH]cn1)[C@@H]1Cc2ccccc2CN1 [Example 3] | 82.7 ± 7.7 nM | 
4 | N[C@@H](CC(=O)OCc1ccccc1)C(=O)NCCc1c[nH]cn1 [Example 15, Phenylmethyl-3-(S)-amino-3-(N-(2-imidazol-4-ylethyl)carbamoyl)propanoate] | 81.6 ± 13.6 nM | 
5 | C(#Cc1c[nH]cn1)CCCc1ccccc1 [Example 38, 4-(5-Phenylpent-1-ynyl)imidazole] | 591 ± 36 nM | 
6 | N[C@H](Cc1ccccc1)C(=O)NCCc1c[nH]cn1 [Example 4, 2-(R)-Amino-N-(2-imidazol-4-yletyl)-3-phenyl propanamide] | > 10000 nM | 
7 | CC(C)C[C@H](N)C(=O)NCCc1c[nH]cn1 [Example 20, 2-(S)-Amino-N-(2-imidazol-4-ylethyl)-4-methylpentanamide] | 122 ± 37 nM | 
8 | N[C@@H](COCc1ccccc1)C(=O)NCCc1c[nH]cn1 [Example 14, 2-(S)-Amino-N-(2-imidazol-4-ylethyl)-3-(phenylmethoxy)propanamide] | 122 ± 11 nM | 
9 | N[C@@H](CCc1ccccc1)C(=O)NCCc1c[nH]cn1 [Example 11, 2-(S)-Amino-N-(2-imidazol-4-ylethyl)-4-phenylbutanamide] | 10.9 ± 1.7 nM | 
10 | C(#CCCc1c[nH]cn1)CCCc1ccccc1 [Example 39, 4-(7-Phenylhept-3-ynyl)imidazole] | 6.7 ± 0.6 nM | 
11 | N[C@H](C(=O)NCCc1c[nH]cn1)c1ccccc1 [Example 9, 2-(S)-Amino-N-(2-imidazol-4-ylethyl)-2-phenylethanamide] | 630 ± 51 nM | 
12 | c1nc(CCNC[C@@H]2CC3CCCCC3N2)c[nH]1 (stereo partly drawn) [Example 22, ((7-Azabicyclo[4.3.0]non-(S)-8-yl)methyl)(2-imidazol-4-ylethyl)amine] | 66 ± 4 nM | 
13 | N[C@@H](Cc1ccccc1)C(=O)NCCc1c[nH]cn1 [Example 1, 2-(S)-Amino-N-(2-imidazol-4-yletyl)-3-phenyl propanamide] | 104 ± 14 nM | 
14 | BrC(Br)=Cc1c[nH]cn1 [Example 48, 4-(2,2-Dibromovinyl)imidazole] | > 10000 nM | 
15 | C[C@@H](N)Cc1cnc[nH]1 [RAMHA] |  | deep slow wave sleep (cat; oral administration): significant increase
16 | CCC#CCCc1c[nH]cn1 [Example 27, 4-Hex-3-ynylimidazole] | 79 ± 22 nM | 
17 | N[C@@H](Cc1ccc(F)cc1)C(=O)NCCc1c[nH]cn1 [Example 5, 2-(S)-Amino-3-(4-flurophenyl)-N-(2-imidazoyl-4-ylethyl)propanamide] | 84.5 ± 12.8 nM | 
18 | N[C@@H](Cc1cccc2ccccc12)C(=O)NCCc1c[nH]cn1 [Example 8, 2-(S)-Amino-N-(2-imidazol-4-ylethyl)-3-naphthylpropanamide] | 299 ± 82 nM | 
19 | C#Cc1c[nH]cn1 [Example 46, 4-Ethynylimidazole] | > 10000 nM | 
20 | BrC(Br)=CCCc1c[nH]cn1 [Example 47, 4-(4,4-Dibromobut-3-enyl)imidazole] | 26 ± 9.6 nM | 
21 | C(=C/CCc1c[nH]cn1)/CCc1ccccc1 [Example 42, 4-(6-Phenylhex-cis-3-enyl)imidazole] | 5.5 ± 0.02 nM | 
22 | N[C@@H](Cc1ccc(OCc2ccccc2)cc1)C(=O)NCCc1c[nH]cn1 [Example 13, 2-(S)-Amino-N-(2-imidazol-4-ylethyl)-3-(4-(phenylmethoxy)phenyl) propanamide] | 199 ± 24 nM | 
23 | C#CCCc1c[nH]cn1 [Example 45, 4-But-3-ynylimidazole] | 66 ± 5.5 nM | 
24 | Cc1c(C)c(S(=O)(=O)NC(=N)NCCC[C@H](N)C(=O)NCCc2c[nH]cn2)c(C)c2c1OC(C)(C)CC2 [Example 17, 2-(S)-Amino-N-(2-imidazol-4ylethyl)-5-((imino(((2,2,5,7,8-pentamethylchroman-6-yl)sulfonyl)amino)methyl)amino)pentanamide] | 14 ± 3 nM | 
25 | CN[C@@H](Cc1ccccc1)C(=O)NCCc1c[nH]cn1 [Example 7] | 1650 ± 310 nM | 
26 | N[C@@H](Cc1c[nH]cn1)C(=O)NCCc1c[nH]cn1 [Example 16, 2-(S)-Amino-3-imidazol-4-yl-N-(2-imidazol-4-ylethyl)propanamide] | 3260 ± 457 nM | 

More lines, main results first:

Row | Ki (Histamine H3 receptor) | SMILES | other results
27 | 231 ± 15 nM | C[C@H](Cc1c[nH]cn1)NC(=O)[C@@H]1CC2CCCCC2N1 (stereo partly drawn) [Example 21] | 
28 | 74.5 nM | c1ncc(CCCCCCC2CCCCC2)[nH]1 [Example 41, 4-(6-Cyclohexylhexyl)imidazole] | 
29 | 4.2 ± 0.6 nM | C(=C/CCC1CCCCC1)/CCc1c[nH]cn1 [Example 24, 4-(6-Cyclohexyl-cis-3-enyl)imidazole] | 
30 | 0.8 ± 0.4 nM | CC(C)(C)CCC#CCCc1c[nH]cn1 [Example 32, 4-(7,7-Dimethyloct-3-ynyl)imidazole] | 
31 | 0.95 ± 0.3 nM | C(#CCCC1CCCC1)CCc1c[nH]cn1 [Example 30, 4-(6-Cyclopentylhex-3-ynyl)imidazole] | 
32 | 30.8 ± 2.1 nM | N[C@@H](CC1CCCCC1)C(=O)NCCc1cnc[nH]1 [Example 6, 2-(S)-Amino-3-cyclohexyl-N-(2-imidazol-4-ylethyl)propanamide] | 
33 | 3 ± 0.2 nM | CCCCC#CCCc1c[nH]cn1 [Example 40, 4-Oct-3-ynylimidazole] | 
34 | 27 ± 7.5 nM | CCCC#CCCc1c[nH]cn1 [Example 28, 4-Heptyl-3-ynylimidazole] | 
35 | 16 ± 2 nM | C(=C\CCC1CCCCC1)/CCc1c[nH]cn1 [Example 25, 4-(6-Cyclohexylhex-trans-3-enyl)imidazole] | 
36 | 45 ± 11 nM | CN(CCc1c[nH]cn1)C(=O)[C@@H]1CC2CCCCC2N1 (stereo partly drawn) [Example 18, (7-Azabicyclo[4.3.0]non-(S)-8-yl)-N-(2-imidazol-4-ylethyl)-N-methylformamide] | 
37 | 2.8 ± 0.7 nM | CCCCCCCC#CCCc1c[nH]cn1 [Example 34, 4-Undec-3-ynylimidazole] | 
38 | 3.4 ± 1.7 nM | C(#CCCc1c[nH]cn1)CCCC1CCCCC1 [Example 37, 4-(7-Cyclohexylhept-3-ynyl)imidazole] | 
39 | 863 ± 139 nM | C(#Cc1c[nH]cn1)CCCC1CCCCC1 [Example 36, 4-(5-Cyclohexylpent-1-ynyl)imidazole] | 
40 | 11.1 ± 0.4 nM | O=C(NCCc1c[nH]cn1)[C@@H]1CC2CCCCC2N1 (stereo partly drawn) [Example 12, (7-Azabicyclo[4.3.0]non-(S)-8-yl)-N-(2-imidazol-4-ylethyl)formamide] | 
41 | 1 ± 0.1 nM | N[C@H](/C=C/CCc1c[nH]cn1)CC1CCCCC1 [Example 26, 1-Cyclohexyl-6-imidazol-4-ylhex-trans-3-en-2-(S)-ylamine] | 
42 | 5490 ± 255 nM | CC(=O)N[C@@H](CC1CCCCC1)C(=O)NCCc1c[nH]cn1 [Example 10, 2-(S)-(Acetylamino)-3-cycohexyl-N-(2-imidazol-4-ylethyl)propanamide] | 
43 | 63 ± 1 nM | N=C(N)NCCC[C@H](N)C(=O)NCCc1c[nH]cn1 [Example 19, 5-(Amidinoamino)-2-(S)-amino-N-(2-imidazol-4-ylethyl)pentanamide] | 
44 | 2.9 ± 0.2 nM | C(#CCCC1CCCCC1)CCc1c[nH]cn1 [Example 23, 4-(6-Cyclohexylhex-3-ynyl)imidazole] | 
45 | 5.6 ± 1 nM | CCCCCC#CCCc1c[nH]cn1 [Example 33, 4-Non-3-ynylimidazole] | 
46 | 1210 ± 80 nM | C(#CCCN1CCOCC1)CCc1c[nH]cn1 [Example 35, 4-(6-Imidazol-4-ylhex-3-ynyl)morpholine] | 
47 | 202 ± 2 nM | O=C(NCCc1c[nH]cn1)[C@@H]1CCCN1 [Example 2, N-(2-Imidazol-4-ylethyl)-(S)-pyrrolidin-2-ylformamide] | 
